Measured values published in paper PMC13576449, “Small-Molecule Activators of PRMT1: Discovery, SAR Analyses, and Proapoptotic Effects in Pancreatic Cancer Cells” (Journal of Medicinal Chemistry, 2026).

What was measured:
FLAG-tagged PRMT1 [1] = target: T1, FLAG-tagged PRMT1 (Rattus norvegicus, UniProt Q63009); assay: Fluorescence-based in vitro PRMT assay (F-PRMT assay), PRMT1; type: biochemical; settings: for activation at 100 µM: read-out: enhancement (increase) of PRMT1 enzymatic activity
T1 construct: Full-length FLAG-tagged PRMT protein; made in house; host or cells: Sf9 insect cells (baculovirus)
T1 sequence (Q63009 whole entry): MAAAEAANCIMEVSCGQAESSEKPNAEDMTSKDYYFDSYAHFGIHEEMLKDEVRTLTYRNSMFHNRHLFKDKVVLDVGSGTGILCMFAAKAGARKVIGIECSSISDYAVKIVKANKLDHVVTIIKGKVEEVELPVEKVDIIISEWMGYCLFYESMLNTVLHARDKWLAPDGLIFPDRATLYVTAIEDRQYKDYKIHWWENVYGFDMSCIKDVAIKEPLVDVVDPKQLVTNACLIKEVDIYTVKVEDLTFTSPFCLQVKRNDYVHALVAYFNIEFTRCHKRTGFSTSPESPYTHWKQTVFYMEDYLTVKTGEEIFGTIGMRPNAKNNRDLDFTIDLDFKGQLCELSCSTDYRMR

FLAG-tagged PRMT1 [2] = target: T1, FLAG-tagged PRMT1; assay: Liquid in vitro methyltransferase assay, scintillation counting (GST-GAR); type: biochemical; settings: 200 μM compound, except TR-033 100 μM; vs DMSO control
Protocol: As negative control (Ctrl (−)), PRMT1 enzymes and [^14C-methyl]-SAM were incubated without substrates. Subsequently, samples were separated by SDS-PAGE, blotted, and analyzed by autoradiography. Substrates (H2A, H4 or GST-GAR) and molecular weights (kDa) of the protein marker are indicated. Black lines designate composite images, assembled from the same blots and exposure times. The methylation signals of the substrates were densitometrically quantified, and expressed relative to the DMSO-treated control, as indicated by the numbers below the autoradiographs. Representative results are depicted, with quantification graphs (below the autoradiographs in A and B) summarizing biological replicates. […] Subsequently, GST-GAR was immobilized on glutathione-beads and PRMT1 activity was measured by quantifying the incorporation of ^14C-methyl groups (in cpm) using liquid scintillation counting. […] Cell viability was quantified using the CellTiter-Glo assay. Viability of compound-treated cells is shown in % relative to the viability of solvent-treated cells, which was set to 100% (mean ± SD, n = 3), and then plotted against the logarithm of the compound concentrations. Concentration-viability curves were fitted by nonlinear regression, with the half-maximal inhibitory concentration (IC50) of the compounds for PANC-1 cell viability and the coefficient of determination (R^2) indicated. […] Subsequently, whole-cell extracts were prepared and analyzed by Western blot using antibodies against ADMA, ACTIN (ACT), and VINCULIN (VINC), of which the latter two stainings served as loading controls. Molecular weights (kDa) of the protein marker are indicated. All the ADMA signals per lane were densitometrically quantified, normalized to the signal of the respective loading control and expressed relative to the DMSO-treated control, as indicated by the numbers below the immunostainings.
For the liquid methyltransferase assays, the reaction mixtures, containing 1–2 μg eluted FLAG-tagged PRMT1 and as the substrate 1–2 μg eluted GST-GAR protein at a total volume of 20 μL in PBS, were preincubated in the absence (DMSO) or presence of compounds at room temperature and under agitation (800 rpm) for 30 min. […] After washing, 1 mL scintillation liquid (Rotiszint ecoplus, Roth) was added to the bead-bound GST-GAR and incorporated ^14C-methyl groups were quantified using a scintillation counter (LS6500, Beckman Coulter). Background signal was determined using 1 mL of scintillation fluid alone and was subtracted from the measured counts of the enzymatic reactions. Compound-treated PRMT1 activity was expressed as background-corrected counts (in cpm) normalized to the DMSO control.

PANC-1 cells = assay: Annexin V/PI flow cytometry apoptosis assay, PANC-1; type: cell-based, human; settings: TR-07 10 μM; for gemcitabine-induced apoptosis, AV/PI flow cytometry, co-treatment: TR-033 5 µM, TR-036 10 µM, ICTR-059 5 µM, after 24 h gemcitabine 1 μM, 48 h, vs gemcitabine alone
Protocol: 6 Effect of small-molecule modulators on gemcitabine-induced apoptosis and tumor growth of PDAC cells. […] After 2 h, gemcitabine (GEM) was added at increasing concentrations (10 and 25 nM) or not (−) for another incubation of 72 h. Subsequently, the luminescence-based caspase3/7 assay was performed. The activity of caspase 3/7 in treated cells was normalized to the activity measured in untreated cells (dark gray bar), which was set to 1 (mean SD, n = 6 for PANC-1 and n = 4 for PaTu8988T; *: p ≤ 0.05, **: p ≤ 0.01, ***: p ≤ 0.001, using the student t-test). […] After 24 h, gemcitabine (GEM, 1 μM) was added (+) or not (−) for another incubation of 48 h. Subsequently, the apoptotic cell fraction was quantified in % by flow cytometry using FITC-labeled Annexin V (AV) and propidium iodide (PI) staining (in B: mean ± SD, n = 6 for PANC-1 and n = 5 for PaTu8988T; **: p ≤ 0.01, ***: p ≤ 0.001, ****: p ≤ 0.0001, using the student t-test). […] Viable cells are AV/PI double-negative (AV–/PI–, lower left quadrant, Q4), early apoptotic cells are AV single-positive (AV+/PI– upper left quadrant, Q1), late apoptotic cells are AV/PI double-positive (AV+/PI+, upper right quadrant, Q2), and necrotic cells are PI single-positive (AV–/PI+, lower right quadrant, Q3). The sum of early and late apoptotic cell numbers ([…] in %) is indicated in red. D-G: The workflow of the PDAC xenograft experiments in mice is depicted in D. PANC-1 cells (2 × 10^6 cells/mouse) were subcutaneously (s.c.) injected in the right flank of female athymic nude mice. Small tumor nodules appeared 6 days post-engraftment. […] Tumor volumes were measured every second day using a digital caliper. […] At the end of the 2 weeks, mice were sacrificed and tumors were dissected (F).
For quantification of apoptosis by Fluorescence Activated Cell Sorting (FACS), PANC-1 and PaTu8988T cells were seeded in 6-well plates (250 × 10^3 cells/well) and cultured in the absence or presence of compounds. After 24 h, gemcitabine was added or not for another 48 h. After harvesting and washing, unfixed cells (0.5–1 × 10^6) were incubated with FITC-labeled Annexin V and/or PI (BD Pharmingen) according to the manufacturer’s instructions. All samples were analyzed using a BD FACSCalibur flow cytometer (BD Bioscience). Data were acquired using the CellQuestPro program and analyzed with the FlowJo (FlowJo LLC) software. […]
induced apoptosis in PDAC cell lines.
After 24 hours, gemcitabine (GEM, 1 µM) was added (+) or not
(-) for another incubation of 48 hours. Subsequently, the apoptotic cell fraction was assessed by flow cytometry using FITC-labeled Annexin V (AV) and propidium iodide (PI) staining and quantified in % (mean ± SD, n=3-4; ns: not significant, *: p ≤0.05, **: p ≤0.01, ***: p ≤0.001, ****: p ≤0.0001, using the student t-test).

[3] = 100 μM compound, increase over solvent-treated activity

Row | PRMT1 activity compared to the solvent-treated activity of 100% (FLAG-tagged PRMT1 [1]; 100 μM compound) | effect on PRMT1 activity (in words) (FLAG-tagged PRMT1 [1]; 100 μM compound) | activation at 100 µM (FLAG-tagged PRMT1 [1]; [3]) [%] | Compound | enhancement (increase) of PRMT1 enzymatic activity (FLAG-tagged PRMT1 [1]; [3]) | Efficacy ±Δ% (PRMT1) (FLAG-tagged PRMT1 [1]; Table 1, 100 μM compound, mean % difference of activity vs solvent control (100%), - inhibition, + activation, n = 3) | Efficacy ±∆% (PRMT1) (FLAG-tagged PRMT1 [1]; Table S3, 100 µM compound, mean % difference vs solvent control (100%), n≥3) | EC50 (FLAG-tagged PRMT1 [1]; read-out: half-maximal effective concentration (EC50) for PRMT1) [µM] | PRMT1 methylation activity toward GST-GAR, liquid scintillation counting (FLAG-tagged PRMT1 [2]) | apoptosis, AV/PI flow cytometry, single agent (PANC-1 cells) | gemcitabine-induced apoptosis, AV/PI flow cytometry, co-treatment (PANC-1 cells)
1 |  |  |  | CN(C)Cc1cccc(CN/C=C2\C(=O)NC(=O)c3ccccc32)c1.Cl [TR-07, (Z)-1-[3-({[(1,3-Dioxo-2,3-dihydroisoquinolin-4(1H)-lidene)methyl]amino}methyl)phenyl]-N,N-dimethylmethanaminium chloride] | +45% | +45% | +45% | 108 | increased | did not significantly induce apoptosis | significant increase in the early and late apoptotic stages
2 | 215–225% | significantly increased PRMT1 activity | ≥ 60 | CN(C)Cc1cccc(-c2ccc3[nH]c(=O)c4ccccc4c3c2)c1 [TR-033, 2-{3-[(Dimethylamino)methyl]phenyl}phenanthridin-6(5H)-One] |  |  |  |  | increased |  | rather diminished the gemcitabine-triggered cell death
3 | 215–225% |  | ≥ 60 | CCN(CC)Cc1cccc(N/C=C2\C(=O)NC(=O)c3ccccc32)c1.Cl [TR-036, (Z )-N-(3-{[(1,3-Dioxo-2,3-dihydroisoquinoline-4(1 H )-ylidene)methyl]amino}benzyl)-N -ethylethanaminium chloride] |  |  |  |  | increased |  | rather diminished the gemcitabine-triggered cell death

Row | Compound | PRMT1 activity compared to the solvent-treated activity of 100% (FLAG-tagged PRMT1 [1]; 100 μM compound) | effect on PRMT1 activity (in words) (FLAG-tagged PRMT1 [1]; 100 μM compound) | activation at 100 µM (FLAG-tagged PRMT1 [1]; [3]) [%] | enhancement (increase) of PRMT1 enzymatic activity (FLAG-tagged PRMT1 [1]; [3]) | Efficacy ±Δ% (PRMT1) (FLAG-tagged PRMT1 [1]; Table 1, 100 μM compound, mean % difference of activity vs solvent control (100%), - inhibition, + activation, n = 3) | Efficacy ±∆% (PRMT1) (FLAG-tagged PRMT1 [1]; Table S3, 100 µM compound, mean % difference vs solvent control (100%), n≥3) | EC50 (FLAG-tagged PRMT1 [1]; read-out: half-maximal effective concentration (EC50) for PRMT1) [µM] | PRMT1 methylation activity toward GST-GAR, liquid scintillation counting (FLAG-tagged PRMT1 [2]) | apoptosis, AV/PI flow cytometry, single agent (PANC-1 cells) | gemcitabine-induced apoptosis, AV/PI flow cytometry, co-treatment (PANC-1 cells)
4 | (Z)-2-(2-{[(1,3-Dioxo-2,3-dihydroisoquinolin-4(1H)-ylidene)methyl]amino}phenyl)-N,N-dimethylethan-1-aminium chloride [ICTR-059] | up to 200% |  |  |  |  |  |  | increased |  | had no effect
